The nature of series [1]: Thermodynamic solubility at pH 6.8. The class given is physicochemical.
For series [2], the system named is KINOMEscan panel (DiscoverX) of >400 wild-type human kinases. Format: binding. The conditions noted are these: inhibitor concentration = 1 μM.
Series [3] deals with in-house panel of 48 representative kinases. Format: binding.
Series [4] addresses T1, DYRK1A (Homo sapiens, UniProt Q13627). Format: binding. As to conditions: for LE: LE = 1.4(pIC50)/nonhydrogen atoms; for LLE: LLE = pIC50 – clog P.
Series [5] relates to Madin–Darby canine kidney cells transfected with the human MDR1 gene (MDCK-MDR1). In words: MDCK-MDR1 permeability and P-gp efflux assay. The conditions noted are these: MDCK-MDR1, conclusion in words. Format: in vitro ADME.
The subject of another series is P-gp (human MDR1). The series is described as follows: MDCK-MDR1 permeability and P-gp efflux assay. The class given is in vitro ADME, canine. The conditions noted are these: dog, MDCK-MDR1.
A short description of series [6]: In vivo pharmacokinetic study, i.v. in Sprague–Dawley rats. The conditions noted are these: 1 mg/kg i.v.
In series [7] the target is T1, DYRK1A. The class given is binding. The conditions noted are these: SPR, dissociation rate (off-rate).
[8] abbreviates: relative to reference compound/matched-molecular pair 11.

Values after ≈ are worked out from the molar mass of the structure shown. Read-outs that look alike come from different tables or passages of the source. Where only a bound is given, the exact number is not on record here.

As to `Cc1cccc(N(C)c2nccc(-c3cnn4ncccc34)n2)c1` [Compound 8b], in series [1], the concentration in solution (solubility) was 10 µg/mL (≈ 31.6 µM). With `CC1CCCN1c1nccc(-c2cnn3ncccc23)n1` (stereo not shown) [Compound 24, 3-[2-(2-Methylpyrrolidin-1-yl)pyrimidin-4-yl]pyrazolo[1,5-b]pyridazine], the “S score (35)” value in series [2] came to 0.004. Turning to `CN(C)c1nccc(-c2c[nH]c3ncccc23)n1` [Compound 78], in series [3], the “selectivity by thermal stabilization (in words)” value is “cross-reacted with several additional kinases including the NAK kinases AAK1 and BMP2K”. In the case of `CC(C)N(c1nccc(-c2cnn3ncccc23)n1)C1CC1` [Compound 13], the “fold reduction in DYRK1A binding affinity” value (from here on “fold reduction”) on DYRK1A [4] (matched-molecular pairs 12 and 13) is 10 fold. As for `Cc1cnn2ncc(-c3ccnc(N(C)C)n3)c2c1` [Compound 63, N,N-Dimethyl-4-(5-methylpyrazolo[1,5-b]pyridazin-3-yl)pyrimidin-2-amine], the “S score (35)” value in series [2] came out at 0.027.

For the compound `F[C@@H]1CCN(c2nccc(-c3cnn4ncccc34)n2)C1` [Compound 31, 3-[2-[(3R)-3-Fluoropyrrolidin-1-yl]pyrimidin-4-yl]pyrazolo[1,5-b]pyridazine], the “S score (35)” value in series [2] stood at 0.011. On DYRK1A [4], `CN(C)c1cccc(-c2cnn3ncccc23)n1` [Compound 111] had an LE of 0.47 and an LLE of 3.79. In addition, the “fold reduction” value at DYRK1A [4] (setting [8]) is on record as “approximately 10 fold”.

As to `CN(c1nccc(-c2cnn3ncccc23)n1)C1CC1` [Compound 12, N-Cyclopropyl-N-methyl-4-pyrazolo[1,5-b]pyridazin-3-yl-pyrimidin-2-amine], the “S score (35)” value in series [2] worked out at 0.013.

As for `N[C@H]1CCN(c2nccc(-c3cnn4ncccc34)n2)C1` [Compound 33, (3S)-1-(4-pyrazolo[1,5-b]pyridazin-3-yl-pyrimidin-2-yl)pyrrolidin-3-amine], the “S score (35)” value in series [2] came to 0.027. Consider `COc1ccc2c(-c3ccnc(N(C)C)n3)cnn2n1` [Compound 65], for which, at DYRK1A [4] (setting [8]), the “fold reduction” value is reported as over 10 fold. In the case of `CN(C)c1nccc(-c2cnn3ncccc23)n1` [Compound 11, N,N-Dimethyl-4-pyrazolo[1,5-b]pyridazin-3-yl-pyrimidin-2-amine], the P-gp substrate entry in series [5] is “not a P-gp substrate”. Further, in the series with P-gp (human MDR1), the Papp A→B amounted to 71.4 ± 0.65 ×10⁻⁶ cm/s and the Papp B→A was 58.7 ± 1.45 ×10⁻⁶ cm/s. In addition, the “S score (35)” value in series [2] is on record as 0.027. Besides, in series [6], the adverse effects entry is “no adverse effects reported”. For `CN(C)c1cc(-c2cnn3ncccc23)ccn1` [Compound 113], at DYRK1A [4], the LE is given as 0.48 and the LLE amounted to 4.31. For the same compound, the “fold reduction” value at DYRK1A [4] (setting [8]) worked out at 10 fold.

Take `Cc1nn2ncccc2c1-c1ccnc(N(C)C)n1` [Compound 60]: the “DYRK1A binding affinity (in words)” value on DYRK1A [4] (TR-FRET assay) is “no binding affinity”. Turning to `C[C@H]1CCN(c2nccc(-c3cnn4ncccc34)n2)C1` [Compound 28, 3-[2-[(3S)-3-Methylpyrrolidin-1-yl]pyrimidin-4-yl]pyrazolo[1,5-b]pyridazine], in series [2], the “S score (35)” value is given as 0.050. Still for that read-out and setting: the result for `c1cnn2ncc(-c3ccnc(N4CCC45COC5)n3)c2c1` [Compound 22, 1-(4-Pyrazolo[1,5-b]pyridazin-3-yl-pyrimidin-2-yl)-6-oxa-1-azaspiro[3.3]heptane] reads 0.042; that for `C[C@@H]1CCN(c2nccc(-c3cnn4ncccc34)n2)C1` [Compound 29, 3-[2-[(3R)-3-Methylpyrrolidin-1-yl]pyrimidin-4-yl]pyrazolo[1,5-b]pyridazine], 0.035. Regarding `Cc1ccnn2ncc(-c3ccnc(N(C)C)n3)c12` [Compound 64], at DYRK1A [4] (setting [8]), the “fold reduction” value is about 10 fold.

For `Cc1ccc2c(-c3ccnc(N(C)C)n3)cnn2n1` [Compound 62], the “fold reduction” value on DYRK1A [4] (setting [8]) was over 10 fold. Same read-out and setting: the same measure for `COc1ccnn2ncc(-c3ccnc(N(C)C)n3)c12` [Compound 66, 4-(4-Methoxypyrazolo[1,5-b]pyridazin-3-yl)-N,N-dimethyl-pyrimidin-2-amine]: about 2 fold. The compound `CN(C)c1ncc(F)c(-c2cnn3ncccc23)n1` [Compound 95, 5-Fluoro-N,N-dimethyl-4-pyrazolo[1,5-b]pyridazin-3-yl-pyrimidin-2-amine] yielded a kd on DYRK1A [7] of 0.06 s^–1.

Values taken from paper PMC8482766 (Journal of Medicinal Chemistry, 2021).
